Assay results taken from patent US11214556B1, “Method of treating colorectal cancer” (King Abdulaziz University, priority 2019, dated 2022).

Key:
CACO-2 cells = assay: SRB cytotoxicity assay, CACO-2; format: cell-based, human; conditions: 72 h exposure, ± SEM
Summary of the method: (§1)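 Cells seeded at 5000/well, grown 24 h, then exposed 72 h at 37 °C to 0.01–100 μM compound or 1% DMSO in RPMI1640 with 10% FBS. TCA-fixed, SRB-stained, OD read at 510 nm; viability expressed relative to untreated control cells.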

HT-29 cells = assay: SRB cytotoxicity assay, HT-29; format: cell-based, human; conditions: monolayer, 72 h exposure, ± SEM
Summary of the method: as §1

HCT-116 cells [1] = assay: Cell cycle analysis by flow cytometry; format: cell-based, human; conditions: IC50 concentration, 24 h
Description: The exposure of the cells to 4112 led to a significant increase in the proportion of cells in pre-G1 phase (Up to 9-fold compared to the control). Accumulation of cells in pre-G1 phase, likely as a result of degradation or fragmentation of genetic material indicates a possible role for apoptosis through compound-induced growth inhibition.
The cells were collected by trypsinization, washed with phosphate buffered saline (PBS) and fixed in ice-cold absolute alcohol. Thereafter, cells were stained using Cycletest™ Plus DNA Reagent Kit (BD Biosciences, San Jose, Calif.) according to the manufacturer's instructions. Cell cycle distribution was determined using a FACS Calibur flow cytometer (BD Biosciences, San Jose, Calif.).

HCT-116 cells [2] = assay: Annexin V/propidium iodide apoptotic cell determination; format: cell-based, human; conditions: IC50 concentration
Swiss albino mice = assay: Acute oral toxicity (LD50), OECD guideline 423; format: in vivo; conditions: oral, mice
Description: Since compounds with electrophilic properties, e.g., MA are usually involved in a variety of toxic effects on mammalians, the general acute toxicity of 1512, 3712 and 4112 was investigated by determining the in vivo lethal dose (LD50) according to the Globally Harmonized Classification System (GHS) and following the Organization for Economic Cooperation and Development (OECD) guideline 423 (modified, adopted Mar. 23, 2006). As observed in the cellular assay, the compound safety was confirmed, as the LD50 for all compounds were between 2000-5000 mg/kg (Category 5). See Spielmann, H.; Genschow, E.; Liebsch, M.; Halle, W., Determination of the starting dose for acute oral toxicity (LD50) testing in the up and down procedure (UDP) from cytotoxicity data. ATLA 1999, 27 (6), 957-966, incorporated herein by reference in its entirety.
The experiment was conducted on 12 healthy Swiss albino mice (males and females) weighing 22-27 g and aged 8 to 10 weeks obtained from the Animal Station, Pharmacology Dept, Faculty of Pharmacy, King Abdulaziz University, Jeddah. See Shoieb, S. M.; Esmat, A.; Khalifa, A. E.; Abdel-Naim, A. B., Chrysin attenuates testosterone-induced benign prostate hyperplasia in rats. Food and Chemical Toxicology 2018, 111, 650-659, incorporated herein by reference in its entirety. All animals were kept at the regulated temperature (average 23° C.), air quality (Central air conditioning) and light (12-h light/dark cycles). Animals were provided free access to food pellets ad libitum and water. The experimental procedure was approved by the Research Ethics Committee, Faculty of Pharmacy, King Abdulaziz University prior to starting the laboratory work. Animals were humanely treated according to international and scientific principles. Changes other than vitality of the animals such as behavioral and food consumption habits were not observed in this study.
The compounds 1512, 3712 and 4112 of purity 95% or more (LC/MS) were prepared for this study as 10% suspension in water containing 0.5% tween 80.
The animals were distributed randomly into four groups (3 mice at each group). […] The second group received an oral dose of 2000 mg/Kg of the drug and observed after 24 h to count the deceased animals. According to the Guideline 423, when all animals were found alive, the same test was repeated (dose 2000 mg/kg) were given to the third group (3 animals) and observed for 24 h. All animals survived and therefore, a dose of 5000 mg/kg were administered to the fourth and final group.

## CCCNC(=O)/C(=C/c1c[nH]c2ccccc12)NC(=O)/C=C/c1cccs1 [Compound 4112, (Z)-3-(1H-indol-3-yl)-N-propyl-2-[(E)-3-(thien-2-yl)acrylamidolacry]amide]
CACO-2 cells
  IC50: 0.89 ± 0.04 µM
HT-29 cells
  IC50: 1.65 ± 0.07 µM
HCT-116 cells [1]
  increase in proportion of cells in pre-G1 phase compared to the control: Up to 9 fold
HCT-116 cells [2]; after 48 hours
  cell population in early apoptosis: 17.5%
  cell population in late apoptosis: 4.1%
  viable cells: 72%
HCT-116 cells [2]; at 24 hours
  change in cell viability: very little change in cell viability
Swiss albino mice
  GHS acute toxicity category: Category 5
